Test results from article PMC8949375, “Design, Green Synthesis and Tailoring of Vitamin E TPGS Augmented Niosomal Nano-Carrier of Pyrazolopyrimidines as Potential Anti-Liver and Breast Cancer Agents with Accentuated Oral Bioavailability” (Pharmaceuticals, 2022).
Like-named read-outs stand apart in the source and are kept apart here.

Key:
[1] = test system: CaCo-2 cell line; assay: MTT cytotoxicity assay, CaCo-2; assay type: cell-based; details: Homo sapiens, read-out: IC50 CaCo-2 Colon Cancer
Text: (§1) • HepG2 [HEPG2] (ATCC® HB-8065™, Manassas, VA, USA) epithelial hepatocellular carcinoma was derived from the liver tissue of a person (a well-differentiated hepatocellular carcinoma). The human HCC cell line, HEPG-2, was obtained from the American Type Culture Collection and used to evaluate the effects of the following drugs. MCF-7(ATCC® HTB-22™, Manassas, VA, USA) breast cancer cells were derived from mammary gland or breast at a metastatic site. The human MCF-7 cell line, MCF-7, was obtained from the American Type Culture Collection and used to evaluate the effects of the following drugs. • Caco 2 [Caco2] (ATCC® HTB 37™, Manassas, VA, USA) epithelial colorectal adenocarcinoma was derived from the colon at a metastatic site. The human Caco-2 cell line, Caco-2, was obtained from the American Type Culture Collection and used to evaluate the effects of the following drugs. A549 (ATCC® CCL-185™, Manassas, VA, USA), epithelial-like lung carcinoma, was derived from lung tissue at a metastatic site. The human A549 cell line, A549, was obtained from the American Type Culture Collection and used to evaluate the effects of the following drugs.
(§2) HEPG2, A549, MCF-7 and Caco-2 cells were maintained in a monolayer culture in a T-25 flask at 5% CO2 and 37 °C in DMEM (Lonza, Verviers, Belgium) and supplemented with 10% (v/v) FBS (Sigma-Aldrich Co. LLC., Burlington, VT, USA). Penicillin/streptomycin (Gibco®, Grand Island, NY, USA) was applied at 100 units/mL and 100 µg/mL, respectively.
(§3) Growth inhibition was determined by classic MTT assay. In brief, HEPG2, A549, MCF-7 and Caco-2 cells were added to a cell culture MTT assay plate at a concentration of 5 × 10^3 cells/well in 1640 medium and cultured overnight. The different treatments were added on day 1 according to the calculated doses except on the control well and standard, then incubated for 24 h. Measurement was achieved using a microplate reader (Model 550, Bio-Rad, Hercules, CA, USA).

[2] = test system: VEGF protein expression level in MCF-7 cell line; assay: VEGF ELISA in MCF-7 cell culture supernatant; assay type: cell-based, human; set-up: concentration or dose not given beside the values; details: MCF-7, ELISA, compared to control
Description: (§4) Total protein was assayed using the method described by Bradford. The VEGF ELISA Assay Kit (VEGF) and ELISA Kit, (#VGF31-[…]) were purchased from (Eagle Biosciences CO., LTD, Amherst, NH, USA). The kit is a sandwich enzyme immunoassay for the in vitro quantitative determination of VEGF concentrations in cell culture supernates, serum and plasma according to the manufacturer's instructions.

[3] = test system: VEGFR-2 protein expression level in HepG2 cell line; assay: Human VEGF receptor-2 ELISA in HepG2; assay type: cell-based; set-up: concentration or dose not given beside the values; details: compared to control
Description: (§5) Total protein was assayed using the method described by Bradford. The Human VEGF receptor-2 ELISA Kit (ab213476), (96 tests) was purchased from (abcam®, Waltham, MA, USA). The kit is a sandwich enzyme immunoassay for the in vitro quantitative measurement of human VEGFR-2 in tissue homogenates, cell lysates and other biological fluids according to the manufacturer’s instructions.

[4] = test system: VEGFR-2 protein expression level in MCF-7 cell line; assay: Human VEGF receptor-2 ELISA in MCF-7; assay type: cell-based; set-up: concentration or dose not given beside the values; details: MCF-7, ELISA, compared to control
Description: as §5

[5] = test system: VEGF protein expression level in HepG2 cell line; assay: VEGF ELISA in HepG2 cell culture supernatant; assay type: cell-based, human; set-up: concentration or dose not given beside the values; details: compared to control
Description: as §4

[6] = test system: VEGF gene expression level in HepG2 cell line; assay: Real-time PCR of VEGF gene expression, HepG2; assay type: cell-based, human; details: HepG2, 3 days of treatment, compared to control, in words
Description: RT-PCR was applied to evaluate the VEGF gene expression level. Briefly, total RNA was extracted, and the extracted total RNA concentration was determined using a NanoDrop 2000 spectrophotometer (Thermo Fisher, Waltham, MA, USA). To determine the relative expression levels, the 2^−ΔΔCT method was used. NCBI/Primer Blast was used to define the primer sequences. The experiments were performed in quadruplicate. The primer sequences of VEGF and β-actin genes are listed below: […]

[7] = test system: HepG2 cell line; assay: MTT cytotoxicity assay, HepG2; assay type: cell-based; details: Homo sapiens
Text: (§6) The human HCC cell line, HEPG-2, was obtained from the American Type Culture Collection and used to evaluate the effects of the following drugs. MCF-7(ATCC® HTB-22TM, Manassas, VA, USA) breast cancer cells were derived from mammary gland or breast at a metastatic site. […] The human Caco-2 cell line, Caco-2, was obtained from the American Type Culture Collection and used to evaluate the effects of the following drugs. […], Manassas, VA, USA), epithelial-like lung carcinoma, was derived from lung tissue at a metastatic site. The human A549 cell line, A549, was obtained from the American Type Culture Collection and used to evaluate the effects of the following drugs. […] LLC., Burlington, VT, USA). Penicillin/streptomycin (Gibco®, Grand Island, NY, USA) was applied at 100 units/mL and 100 μg/mL, respectively. Growth inhibition was determined by classic MTT assay. In brief, HEPG2, A549, MCF-7 and Caco-2 cells were added to a cell culture MTT assay plate at a concentration of 5 × 10^3 cells/well in 1640 medium and cultured overnight. The different treatments were added on day 1 according to the calculated doses except on the control well and standard, then incubated for 24 h.

[8] = test system: HepG2, MCF-7, A-549 and CaCo-2 cell lines; assay: MTT cytotoxicity assay, summary over all tested cell lines; assay type: cell-based, human; details: Homo sapiens; range over compounds and cell lines; read-out: IC50 values versus all tested cell lines (collective range)
Text: as §1, §2, §3

[9] = test system: MCF-7 cell line; assay: MTT cytotoxicity assay, MCF-7; assay type: cell-based; details: Homo sapiens, MCF7, read-out: IC50 MCF-7 Breast Cancer
Text: as §6

[10] = test system: A-549 cell line; assay: MTT cytotoxicity assay, A-549; assay type: cell-based; details: Homo sapiens, A549, read-out: IC50 A-549 Lung Carcinoma
Text: as §1, §2, §3

[11] = read-out: IC50 HepG2 Livercarcinoma

SMILES | IC50 [1] | VEGF 24 h % Inhibition [2] | VEGF 72 h % Inhibition [2] | VEGFR-2 24 h % Inhibition [3] | VEGFR-2 72 h % Inhibition [3] | melting point | VEGFR-2 24 h % Inhibition [4] | VEGFR-2 72 h % Inhibition [4] | VEGF 24 h % Inhibition [5] | VEGF 72 h % Inhibition [5] | VEGF gene expression level [6] | IC50 [7, 11] | IC50 [8] | IC50 [9] | IC50 [10] | IC50 ([7]; TPGS-coated vs uncoated niosomes vs pure compound, read-out: IC50 Hepg2 Liver Carcinoma)
Cc1ccc(N=Nc2c(N)nn3c(C)c(N=Nc4cccc([N+](=O)[O-])c4)c(=O)[nH]c23)cc1 [Compound 4b, 2-Amino-7-methyl-6-((3-nitrophenyl)diazenyl)-3-(4-tolyldiazenyl)pyrazolo[1,5-a]pyrimidin-5(4H)-one] | 15.4 µM | 40% | 50% | 42% | 38.5% | 228 to 230 °C | 50% | 50% | 46% | 41.7% | great inhibition | 12.5 µM | 6 to 50 µM | 25 µM | 14 µM | 
Cc1ccc(N=Nc2c(N)nn3c(N)c(N=Nc4ccc(S(=O)(=O)N=C(N)N)cc4)c(N)nc23)cc1 [Compound 7, N-(Diaminomethylene)-4-((2,5,7-Triamino-3-(4-Tolyldiazenyl)Pyrazolo[1,5-a]Pyrimidin-6-yl)Diazenyl)Benzenesulfonamide] | 6 µM | 50% | 62.5% | 69.7% | 72.3% | 264 to 266 °C | 60% | 62.5% | 51.5% | 70.3% | best VEGF gene expression level downregulation | 6 µM | 6 to 50 µM | 12 µM | 12 µM | 6 µM
